From publication PMC10377586 (Biomolecules, 2023)

What was measured:
DPPH antioxidant assay = type: physicochemical; details: compound at 50 µM
Excerpt: The 2,2-diphenyl-1-picrylhydrazyl (DPPH) assay was used to determine the antioxidant properties of selected compounds using ascorbic acid, trolox, and quercetin as references. […] From a structural point of view, 21 and 22 share a common pyrimido[2,1-f]purinedione core with propyl or butyl substituents at the N1- and N3-position. Compounds 11i and 11l, containing hexyl or phenoxyethyl as N7-substituents, were the only structures in the groups of bicyclic xanthine derivatives that lacked antioxidant activity in the DPPH assay.
Antioxidant properties of considered structures were evaluated in DPPH test. The assay utilizes a stable free radical 2,2-diphenyl-1-picrylhydrazyl (DPPH). DPPH has a deep violet color in solution and strong absorption band at 520 nm. The antioxidant activity of the tested compounds was defined by their ability to induce the formation of the reduced form of DPPH. Upon reduction, DPPH color turned pale yellow, which manifested by decreased sample absorption at 520 nm and was measured in conducted experiments using EnSpire microplate reader (PerkinElmer). Antioxidant activity of xanthine derivatives and reference compounds was tested in triplicate at 50 µM concentration and normalized to the activity of reference radical scavenger—quercetin.
Figure 2 Antioxidant properties of xanthine derivatives evaluated in the DPPH test. All compounds were tested at 50 µM concentration. Results were normalized to the antioxidant activity measured for quercetin. ASC, ascorbic acid; TLX, trolox; QCT, quercetin.

Compound | melting point | Antioxidative Activity [% of Quercetin Response at 50 µM ± SD] (DPPH antioxidant assay)
Cc1c(C)c2c(c(C)c1O)CCC(C)(C(=O)O)O2 (centres unmarked) [Trolox, reference compound] | – | 73 ± 1 % of Quercetin Response
O=C1O[C@H]([C@@H](O)CO)C(O)=C1O [Ascorbic acid, reference compound] | – | 78 ± 1 % of Quercetin Response

The next lines start with results.

melting point | Compound | Antioxidative Activity [% of Quercetin Response at 50 µM ± SD] (DPPH antioxidant assay)
201 to 203 °C | CC(C)Cn1c(NCCc2ccc(O)c(O)c2)nc2c1c(=O)n(C)c(=O)n2C (hydrate or solvate) [Compound 11f, 8-((3,4-Dihydroxyphenethyl)amino)-7-isobutyl-1,3-dimethyl-3,7-dihydro-1H-purine-2,6-dione] | –
180 to 182 °C | Cn1c(=O)c2c(nc(NCCc3ccc(O)c(O)c3)n2CCc2ccccc2)n(C)c1=O (hydrate or solvate) [Compound 11k, 8-((3,4-Dihydroxyphenethyl)amino)-1,3-dimethyl-7-phenethyl-3,7-dihydro-1H-purine-2,6-dione] | –
214 to 216 °C | Cn1c(=O)c2c(nc(NCCc3ccc(O)c(O)c3)n2Cc2ccccc2)n(C)c1=O (hydrate or solvate) [Compound 11j, 7-Benzyl-8-((3,4-dihydroxyphenethyl)amino)-1,3-dimethyl-3,7-dihydro-1H-purine-2,6-dione] | –
